# Test results: publication PMC5218480 (PLoS ONE, 2017)
# System: MV-4-11 cells
# Experiment: Gene expression microarray analysis (Affymetrix PrimeView) and GSEA
# Format: cell-based, human
# Parameters: RFU PODN (11730768_x_at) / Fold change /veh PODN (11730768_x_at) / RFU LINC00158 (11744669_a_at) / Fold change /veh LINC00158 (11744669_a_at) / RFU DUSP10 (11751237_a_at) / Fold change /veh DUSP10 (11751237_a_at) / RFU ID3 (11757404_x_at) / Fold change /veh ID3 (11757404_x_at) / RFU PLEKHG5 (11737974_s_at) / Fold change /veh PLEKHG5 (11737974_s_at) / RFU LRRC4B (11730491_at) / Fold change /veh LRRC4B (11730491_at) / RFU GIMAP4 (11747438_a_at) / Fold change /veh GIMAP4 (11747438_a_at) / RFU KRT8 (11758183_x_at) / Fold change /veh KRT8 (11758183_x_at) / RFU CNN1 (11734310_a_at) / Fold change /veh CNN1 (11734310_a_at) / RFU VPS37D (11726825_at) / Fold change /veh VPS37D (11726825_at) / RFU C10orf10 (11716522_x_at) / Fold change /veh C10orf10 (11716522_x_at) / RFU KIR2DL2 /// KIR2DL4 /// KIR2DL5A /// KIR2DL5B /// KIR2DS1 /// KIR2DS2 /// KIR2DS3 /// KIR2DS4 /// KIR3DL3 /// KIR3DL3 /// KIR3DS1 (11738374_at) / Fold change /veh KIR2DL2 /// KIR2DL4 /// KIR2DL5A /// KIR2DL5B /// KIR2DS1 /// KIR2DS2 /// KIR2DS3 /// KIR2DS4 /// KIR3DL3 /// KIR3DL3 /// KIR3DS1 (11738374_at) / RFU C1QL1 (11718748_at) / Fold change /veh C1QL1 (11718748_at) / RFU TMPRSS4 (11747572_a_at) / Fold change /veh TMPRSS4 (11747572_a_at) / RFU HAMP (11756126_x_at) / Fold change /veh HAMP (11756126_x_at) / RFU RNFT2 (11725882_a_at) / Fold change /veh RNFT2 (11725882_a_at) / RFU NR4A2 (11747474_a_at) / Fold change /veh NR4A2 (11747474_a_at) / RFU ABCC12 (11746883_a_at) / Fold change /veh ABCC12 (11746883_a_at) / RFU TMEM136 (11760407_x_at) / Fold change /veh TMEM136 (11760407_x_at) / RFU CLDN22 /// WWC2 (11732394_at) / Fold change /veh CLDN22 /// WWC2 (11732394_at) / RFU HLA-DPB1 (11760878_x_at) / Fold change /veh HLA-DPB1 (11760878_x_at) / RFU SPINT1 (11716480_a_at) / Fold change /veh SPINT1 (11716480_a_at) / RFU GAP43 (11754022_s_at) / Fold change /veh GAP43 (11754022_s_at) / RFU A4GNT (11735810_at) / Fold change /veh A4GNT (11735810_at) / RFU PRB3 (11715151_x_at) / Fold change /veh PRB3 (11715151_x_at) / RFU TUBB4B (11761932_at) / Fold change /veh TUBB4B (11761932_at) / RFU CAPN14 (11732068_a_at) / Fold change /veh CAPN14 (11732068_a_at) / RFU TMCC2 (11721928_a_at) / Fold change /veh TMCC2 (11721928_a_at) / RFU IRGQ (11745062_a_at) / Fold change /veh IRGQ (11745062_a_at) / RFU FAM174B (11720279_a_at) / Fold change /veh FAM174B (11720279_a_at) / RFU TMPRSS4 (11748680_a_at) / Fold change /veh TMPRSS4 (11748680_a_at) / RFU FAM212B (11763350_a_at) / Fold change /veh FAM212B (11763350_a_at) / RFU PLEKHG5 (11743358_a_at) / Fold change /veh PLEKHG5 (11743358_a_at) / RFU ZSCAN30 (11745921_a_at) / Fold change /veh ZSCAN30 (11745921_a_at) / RFU CMKLR1 (11741424_a_at) / Fold change /veh CMKLR1 (11741424_a_at) / RFU LOC101060620 /// MAPK8IP1 (11723275_at) / Fold change /veh LOC101060620 /// MAPK8IP1 (11723275_at) / RFU SPTSSB (11747773_x_at) / Fold change /veh SPTSSB (11747773_x_at) / RFU PRSS12 (11739890_at) / Fold change /veh PRSS12 (11739890_at) / RFU BIN1 (11741810_x_at) / Fold change /veh BIN1 (11741810_x_at) / RFU WNT11 (11732464_a_at) / Fold change /veh WNT11 (11732464_a_at) / RFU C10orf10 (11716521_a_at) / Fold change /veh C10orf10 (11716521_a_at) / RFU C5orf56 (11738089_at) / Fold change /veh C5orf56 (11738089_at) / RFU CYB561 (11721691_x_at) / Fold change /veh CYB561 (11721691_x_at) / RFU ANKRD19P (11752326_a_at) / Fold change /veh ANKRD19P (11752326_a_at) / RFU OR2T12 /// OR2T33 /// OR2T8 (11738714_s_at) / Fold change /veh OR2T12 /// OR2T33 /// OR2T8 (11738714_s_at) / RFU VCAN (11748164_a_at) / Fold change /veh VCAN (11748164_a_at) / RFU JSRP1 (11732532_at) / Fold change /veh JSRP1 (11732532_at) / RFU KRTAP10-11 (11738290_x_at) / Fold change /veh KRTAP10-11 (11738290_x_at) / RFU MYO3A (11730013_a_at) / Fold change /veh MYO3A (11730013_a_at) / RFU EBF3 (11725865_a_at) / Fold change /veh EBF3 (11725865_a_at) / RFU CAMK2N1 (11719241_x_at) / Fold change /veh CAMK2N1 (11719241_x_at) / RFU C5orf56 (11738088_a_at) / Fold change /veh C5orf56 (11738088_a_at) / RFU OLFML3 (11715873_a_at) / Fold change /veh OLFML3 (11715873_a_at) / RFU LOC100653217 /// NTM (11731650_a_at) / Fold change /veh LOC100653217 /// NTM (11731650_a_at) / RFU MAPK11 (11762145_a_at) / Fold change /veh MAPK11 (11762145_a_at) / RFU FIZ1 (11724087_x_at) / Fold change /veh FIZ1 (11724087_x_at) / RFU OASL (11726364_x_at) / Fold change /veh OASL (11726364_x_at) / RFU SOX15 (11748057_x_at) / Fold change /veh SOX15 (11748057_x_at) / RFU CD79A (11719716_a_at) / Fold change /veh CD79A (11719716_a_at) / RFU HIST1H1D (11736915_at) / Fold change /veh HIST1H1D (11736915_at) / RFU CASKIN2 (11723855_a_at) / Fold change /veh CASKIN2 (11723855_a_at) / RFU LOC730098 (11760151_x_at) / Fold change /veh LOC730098 (11760151_x_at) / RFU OR4N2 (11742367_at) / Fold change /veh OR4N2 (11742367_at) / RFU PRRT2 (11749266_a_at) / Fold change /veh PRRT2 (11749266_a_at) / RFU SNX32 (11753110_a_at) / Fold change /veh SNX32 (11753110_a_at) / RFU CDHR5 (11726645_a_at) / Fold change /veh CDHR5 (11726645_a_at) / RFU RCAN1 (11760418_a_at) / Fold change /veh RCAN1 (11760418_a_at) / RFU FAM167A (11723789_a_at) / Fold change /veh FAM167A (11723789_a_at) / RFU FAM26E (11764081_at) / Fold change /veh FAM26E (11764081_at) / RFU ISYNA1 (11749810_s_at) / Fold change /veh ISYNA1 (11749810_s_at) / RFU ACY1 (11761880_at) / Fold change /veh ACY1 (11761880_at) / RFU 11764098_at / Fold change /veh 11764098_at / RFU SAMD14 (11745864_x_at) / Fold change /veh SAMD14 (11745864_x_at) / RFU NPB (11741838_a_at) / Fold change /veh NPB (11741838_a_at) / RFU TMPRSS6 (11731388_a_at) / Fold change /veh TMPRSS6 (11731388_a_at) / RFU KRTAP10-2 (11738614_at) / Fold change /veh KRTAP10-2 (11738614_at) / RFU ARHGAP8 /// PRR5-ARHGAP8 (11727945_x_at) / Fold change /veh ARHGAP8 /// PRR5-ARHGAP8 (11727945_x_at) / RFU KRTAP5-7 /// NADSYN1 (11734609_at) / Fold change /veh KRTAP5-7 /// NADSYN1 (11734609_at) / RFU RASL12 (11751679_a_at) / Fold change /veh RASL12 (11751679_a_at) / RFU CDKN2B (11736163_a_at) / Fold change /veh CDKN2B (11736163_a_at) / RFU PRF1 (11729649_at) / Fold change /veh PRF1 (11729649_at) / RFU, ZNF638 /// ZNF638-IT1 / Fold change vs veh, ZNF638 /// ZNF638-IT1 / RFU, PANK3 / Fold change vs veh, PANK3 / RFU, SH3YL1 / Fold change vs veh, SH3YL1 / RFU, ZEB2 / Fold change vs veh, ZEB2 / RFU, NRIP1 / Fold change vs veh, NRIP1 / RFU, PTTG1IP / Fold change vs veh, PTTG1IP / RFU, CAPN2 / Fold change vs veh, CAPN2 / RFU, MED14 / Fold change vs veh, MED14 / RFU, SNORA58 / Fold change vs veh, SNORA58 / RFU, C1orf63 / Fold change vs veh, C1orf63 / RFU, LRRFIP1 / Fold change vs veh, LRRFIP1 / RFU, NDUFAF7 / Fold change vs veh, NDUFAF7 / RFU, SLC12A2 / Fold change vs veh, SLC12A2 / RFU, IBTK / Fold change vs veh, IBTK / RFU, ESF1 / Fold change vs veh, ESF1 / Fold change vs veh, TMEM50B / RFU, TAOK1 / Fold change vs veh, TAOK1 / RFU, ACBD3 / Fold change vs veh, ACBD3 / RFU, TMA16 / Fold change vs veh, TMA16 / RFU, RWDD3 / Fold change vs veh, RWDD3 / RFU, BCAT1 / Fold change vs veh, BCAT1 / RFU, EDEM3 / Fold change vs veh, EDEM3 / RFU, TMEM33 / Fold change vs veh, TMEM33 / RFU, WDR75 / Fold change vs veh, WDR75 / RFU, AHCTF1 / Fold change vs veh, AHCTF1 / RFU, TFRC / Fold change vs veh, TFRC / RFU, ZDHHC17 / Fold change vs veh, ZDHHC17 / RFU, NOM1 / Fold change vs veh, NOM1 / RFU, ARL8B / Fold change vs veh, ARL8B / RFU, ZBTB11 / Fold change vs veh, ZBTB11 / RFU, TAMM41 / Fold change vs veh, TAMM41 / RFU, KIAA1704 /// LOC100996395 / Fold change vs veh, KIAA1704 /// LOC100996395 / RFU, ING1 / Fold change vs veh, ING1 / RFU, TRMT61B / Fold change vs veh, TRMT61B / RFU, FUBP3 / Fold change vs veh, FUBP3 / RFU, TP53 / Fold change vs veh, TP53 / RFU, TNKS2 / Fold change vs veh, TNKS2 / RFU, ZFP14 / Fold change vs veh, ZFP14 / RFU, ACTR2 / Fold change vs veh, ACTR2 / RFU, PPP3R1 / Fold change vs veh, PPP3R1 / RFU, PIK3R1 / Fold change vs veh, PIK3R1 / RFU, HNRNPA1 / Fold change vs veh, HNRNPA1 / RFU, RNF170 / Fold change vs veh, RNF170 / RFU, ZNF28 / Fold change vs veh, ZNF28 / RFU, RNGTT / Fold change vs veh, RNGTT / RFU, OGT / Fold change vs veh, OGT / RFU, BRD1 / Fold change vs veh, BRD1 / RFU, MARS / Fold change vs veh, MARS / RFU, ZNF655 / Fold change vs veh, ZNF655 / RFU, FAHD1 / Fold change vs veh, FAHD1 / RFU, BDP1 / Fold change vs veh, BDP1 / RFU, LRRCC1 / Fold change vs veh, LRRCC1 / RFU, ARID1A / Fold change vs veh, ARID1A / RFU, ZNF146 / Fold change vs veh, ZNF146 / RFU, ZNF330 / Fold change vs veh, ZNF330 / RFU, GPN3 / Fold change vs veh, GPN3 / RFU, C9orf123 / Fold change vs veh, C9orf123 / RFU, N4BP2L2 / Fold change vs veh, N4BP2L2 / RFU, ARFIP1 / Fold change vs veh, ARFIP1 / RFU, FAM179B / Fold change vs veh, FAM179B / RFU, BCL10 / Fold change vs veh, BCL10 / RFU, UHRF1BP1L / Fold change vs veh, UHRF1BP1L / RFU, BET1 / Fold change vs veh, BET1 / RFU, CNOT2 / Fold change vs veh, CNOT2 / RFU, ZNF268 / Fold change vs veh, ZNF268 / Fold change vs veh, ZNF507 / RFU, DGCR2 / Fold change vs veh, DGCR2 / RFU, WDSUB1 / Fold change vs veh, WDSUB1 / Fold change vs veh, HSP90B1 /// MIR3652 / RFU, ADSS / Fold change vs veh, ADSS / RFU, GK / Fold change vs veh, GK / RFU, ZNF148 / Fold change vs veh, ZNF148 / RFU, TAF9 / Fold change vs veh, TAF9 / RFU, SLC1A5 / Fold change vs veh, SLC1A5 / RFU, SLMO2 / Fold change vs veh, SLMO2 / RFU, ABCC4 / Fold change vs veh, ABCC4 / RFU, LOC101060439 /// RAP1B / Fold change vs veh, LOC101060439 /// RAP1B / RFU, RFX7 / Fold change vs veh, RFX7 / RFU, GTPBP10 / Fold change vs veh, GTPBP10 / RFU, CNEP1R1 / Fold change vs veh, CNEP1R1 / RFU, BIVM-ERCC5 /// ERCC5 / Fold change vs veh, BIVM-ERCC5 /// ERCC5 / RFU, ILF3 / Fold change vs veh, ILF3 / RFU 11762660_at / Fold change /veh 11762660_at / RFU VCAN (11757783_s_at) / Fold change /veh VCAN (11757783_s_at) / RFU DDX43 (11728927_at) / Fold change /veh DDX43 (11728927_at) / RFU KRT8 (11758188_x_at) / Fold change /veh KRT8 (11758188_x_at) / RFU NKD1 (11759106_at) / Fold change /veh NKD1 (11759106_at) / RFU SRD5A1 (11742802_a_at) / Fold change /veh SRD5A1 (11742802_a_at) / RFU TPSAB1 /// TPSB2 (11721975_s_at) / Fold change /veh TPSAB1 /// TPSB2 (11721975_s_at) / RFU GSTM3 (11746129_a_at) / Fold change /veh GSTM3 (11746129_a_at) / RFU IL23R (11737362_x_at) / Fold change /veh IL23R (11737362_x_at) / RFU TMEM51 (11727254_a_at) / Fold change /veh TMEM51 (11727254_a_at) / RFU PIWIL2 (11732686_x_at) / Fold change /veh PIWIL2 (11732686_x_at) / RFU ORM1 (11744905_x_at) / Fold change /veh ORM1 (11744905_x_at) / RFU CCDC152 (11743942_at) / Fold change /veh CCDC152 (11743942_at) / RFU ECM1 (11717891_a_at) / Fold change /veh ECM1 (11717891_a_at) / RFU IL23R (11748794_a_at) / Fold change /veh IL23R (11748794_a_at) / RFU TNFAIP8L3 (11732012_x_at) / Fold change /veh TNFAIP8L3 (11732012_x_at) / RFU MBOAT4 (11741988_at) / Fold change /veh MBOAT4 (11741988_at) / RFU 11764193_at / Fold change /veh 11764193_at / RFU TMEM53 (11763286_at) / Fold change /veh TMEM53 (11763286_at) / RFU MAGEB2 (11727129_at) / Fold change /veh MAGEB2 (11727129_at) / RFU TMEM200A (11744735_a_at) / Fold change /veh TMEM200A (11744735_a_at) / RFU CCDC152 (11751479_a_at) / Fold change /veh CCDC152 (11751479_a_at) / RFU FAM211A (11726209_a_at) / Fold change /veh FAM211A (11726209_a_at) / RFU RGS16 (11746705_a_at) / Fold change /veh RGS16 (11746705_a_at) / RFU VCAN (11755009_s_at) / Fold change /veh VCAN (11755009_s_at) / RFU RHOB (11743442_s_at) / Fold change /veh RHOB (11743442_s_at) / RFU RGS16 (11720943_a_at) / Fold change /veh RGS16 (11720943_a_at) / RFU RGS16 (11720944_at) / Fold change /veh RGS16 (11720944_at) / RFU, VPS4B / Fold change vs veh, VPS4B / RFU, CREB1 / Fold change vs veh, CREB1 / RFU, DNAJC13 / Fold change vs veh, DNAJC13 / RFU, GNAQ / Fold change vs veh, GNAQ / RFU, CDK5R1 / Fold change vs veh, CDK5R1 / RFU, ZRANB3 / Fold change vs veh, ZRANB3 / RFU, CUL4A / Fold change vs veh, CUL4A / RFU, CCNY / Fold change vs veh, CCNY / RFU, UFL1 / Fold change vs veh, UFL1 / RFU, COG3 / Fold change vs veh, COG3 / RFU, DIAPH2 / Fold change vs veh, DIAPH2 / RFU, SKA2 / Fold change vs veh, SKA2 / RFU, AFF3 / Fold change vs veh, AFF3 / RFU, LMF1 / Fold change vs veh, LMF1 / RFU, IPO11 / Fold change vs veh, IPO11 / RFU, DFFB / Fold change vs veh, DFFB / RFU, FOXP1 / Fold change vs veh, FOXP1 / RFU, CARD8 / Fold change vs veh, CARD8 / RFU, STRN3 / Fold change vs veh, STRN3 / RFU, ADK / Fold change vs veh, ADK / RFU, RASSF2 / Fold change vs veh, RASSF2 / RFU, WIPF1 / Fold change vs veh, WIPF1 / RFU, LARP1B / Fold change vs veh, LARP1B / RFU, RASA1 / Fold change vs veh, RASA1 / RFU, RB1 / Fold change vs veh, RB1 / RFU, PPFIA1 / Fold change vs veh, PPFIA1 / RFU, MAT2A / Fold change vs veh, MAT2A / RFU, CCT5 / Fold change vs veh, CCT5 / RFU, WDR92 / Fold change vs veh, WDR92 / RFU, CUX1 / Fold change vs veh, CUX1 / RFU, TTC7A / Fold change vs veh, TTC7A / RFU, TMEM135 / Fold change vs veh, TMEM135 / RFU, DEPTOR / Fold change vs veh, DEPTOR / RFU, CPM / Fold change vs veh, CPM / RFU, DNAJB6 / Fold change vs veh, DNAJB6 / RFU, CACNA2D3 / Fold change vs veh, CACNA2D3 / RFU, DTX4 / Fold change vs veh, DTX4 / RFU, TFCP2 / Fold change vs veh, TFCP2 / RFU, GMCL1 /// GMCL1P1 / Fold change vs veh, GMCL1 /// GMCL1P1 / RFU, AEBP2 / Fold change vs veh, AEBP2 / RFU, SNHG1 /// SNORD22 /// SNORD25 /// SNORD26 /// SNORD27 /// SNORD28 /// SNORD29 /// SNORD31 / Fold change vs veh, SNHG1 /// SNORD22 /// SNORD25 /// SNORD26 /// SNORD27 /// SNORD28 /// SNORD29 /// SNORD31 / Fold change (Aza/veh), C12orf56 (ProbeSet 11735607_a_at) / Fold change (ACY-1035/veh), C12orf56 (ProbeSet 11735607_a_at) / Fold change (Aza/veh), FGFR1OP (ProbeSet 11751329_s_at) / Fold change (ACY-1035/veh), FGFR1OP (ProbeSet 11751329_s_at) / Fold change (Aza/veh), VPS36 (ProbeSet 11739960_a_at) / Fold change (ACY-1035/veh), VPS36 (ProbeSet 11739960_a_at) / RFU SYPL1 (11715823_x_at) / Fold change /veh SYPL1 (11715823_x_at) / RFU IGFBP7 (11715501_s_at) / Fold change /veh IGFBP7 (11715501_s_at) / RFU REEP3 (11722064_at) / Fold change /veh REEP3 (11722064_at) / RFU IGLL1 (11728026_x_at) / Fold change /veh IGLL1 (11728026_x_at): dose or concentration left out as unconfirmed
# Conditions: ProbeSet 11732165_x_at; LIST D
structure (smiles),measurement,value
Nc1ncn([C@@H]2O[C@H](CO)[C@@H](O)[C@H]2O)c(=O)n1 [azacitidine],"Fold change vs veh, LMF1",0.71
